The source of these data is patent US8624034B2, “Fluoro-pyridinone derivatives useful as antibacterial agents” (Pfizer Inc., priority 2011, dated 2014).

The test system of assay [1] is PA:UC12120. Put plainly: MIC determination, PA:UC12120 (Table 3). The conditions noted are these: Pseudomonas aeruginosa, UC12120, Table 3, lower of duplicate values. The assay is classed as cell-based, Pseudomonas aeruginosa. As for the experimental part: (§1) The in vitro antibacterial activity of compounds described in the Examples was evaluated by minimum inhibitory concentration (MIC) testing according to Clinical and Laboratory Standards Institute (CLSI). See: Clinical and Laboratory Standards Institute. Methods for Dilution Antimicrobial Susceptibility Tests for Bacteria that Grow Aerobically; Approved Standard-Eighth Edition. CLSI document M7-A8 [ISBN 1-56238-689-1]. Clinical and Laboratory Standards Institute, 940 West Valley Road, Suite 1400, Wayne, Pa. 19087-1898 USA, 2006; also Clinical and Laboratory Standards Institute. Performance Standards for Antimicrobial Susceptibility Testing; Twentieth Informational Supplement. CLSI document M100-S20 [ISBN 1-56238-716-2]. Clinical and Laboratory Standards Institute.
(§2) The MIC determination is a standard laboratory method for evaluating the antibacterial activity of a compound. The MIC represents the lowest drug concentration that inhibits visible growth of bacteria following overnight incubation. […] Typically, the drug concentration range is broken down into 2-fold increments (e.g. 0.06 μg/mL, 0.12 μg/mL. 0.25 μg/mL, 0.50 μg/mL, 1.0 μg/mL, etc.) and the various drug concentrations are all individually incubated overnight with approximately the same number of bacteria. The MIC is then determined by visually inspecting the drug effect at each concentration, and identifying the lowest drug concentration that has inhibited bacterial growth as compared to the drug free control. Typically, bacteria continue to grow at drug concentrations lower than the MIC and don't grow at concentrations at and above the MIC.
(§3) The MIC values described in Table 2 and 3 below were derived from assays wherein each test compound was evaluated in duplicate. In cases where the duplicate values varied by 0-2-fold, the lower of the two values was reported below. Generally speaking, if the duplicate values varied by more than 2-fold, the assay was considered non-valid and was repeated until the variation between duplicate runs was ≦2-fold. In line with the CLSI guidelines referred to above, both control organisms and reference compounds were utilized in each MIC assay to provide proper quality control. MIC values generated with these control organisms and reference compounds were required to fall within a defined range for the assay to be considered valid and be included herein. Those skilled in the art will recognize that MIC values can and do vary from experiment to experiment. Generally speaking, it should be recognized that MIC values often vary +/−2-fold from experiment to experiment. While a single MIC is reported for each compound and each microorganism, the reader should not conclude that each compound was only tested once. Several of the compounds were subjected to multiple tests. The data reported in Tables 2 and 3 is reflective of the compounds relative activity and different MICs may have been generated on these occasions in line with the guidelines described above.
In Table 3 below, column 1 corresponds to the Example number, column 2 provides the IUPAC name, columns 3-6 provide in vitro biological data generated in the same manner as in Table 2, columns 7 and 8 provide the retention times and mass spectra generated via LCMS, using the method described below. All data is not currently available for all compounds, as indicated by a blank cell in Table 3.

Assay [2] deals with T1, Pseudomonas aeruginosa LpxC enzyme (Pseudomonas aeruginosa, UniProt P47205).
T1 construct: made in house; host or cells: E. coli
T1 sequence (P47205 1-303): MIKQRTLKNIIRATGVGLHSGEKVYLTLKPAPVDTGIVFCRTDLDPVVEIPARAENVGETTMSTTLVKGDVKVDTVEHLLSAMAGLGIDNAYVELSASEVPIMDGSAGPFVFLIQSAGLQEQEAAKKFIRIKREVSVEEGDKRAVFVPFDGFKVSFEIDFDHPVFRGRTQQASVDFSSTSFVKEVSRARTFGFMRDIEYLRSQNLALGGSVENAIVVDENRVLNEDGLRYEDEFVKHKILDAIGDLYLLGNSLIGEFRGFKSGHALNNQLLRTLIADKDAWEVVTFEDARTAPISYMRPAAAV
Put plainly: IC50 assay, LpxC enzyme from P. aeruginosa (PA LpxC enzyme IC50). The note with it: Table 3; LpxC enzyme 0.1 nM, 25° C., 1 hour; read-out: PA:IC50. It is filed as biochemical. The procedure: In order to assess the compounds biological activity, selected in vitro assays were conducted on selected compounds. One of the assays measured the compounds ability to disrupt the synthesis of lipopolysaccharide, LPS, which is a component of the outer membrane of Gram-negative bacteria. Disruption of this synthesis is lethal to the bacteria. The assay determined the compound's ability to inhibit LpxC, which is the first enzyme in the biosynthetic pathway for LPS (measured as IC50). Additionally, MICs (minimal inhibitory concentrations) were determined for several bacteria. The specific protocols are described below:
A) IC50 Assay, LpxC Enzyme from P. aeruginosa (Labeled as PA LpxC Enzyme IC50):
At the end of 1 hour, 5 ul of 1 N HCl was added to stop the enzyme reaction, the plates were centrifuged, and then processed with the BioTrove Rapidfire HTMS Mass Spectrometry System. A no-enzyme control was used in calculating the IC50 values from the percent conversion values.

The test system of assay [3] is Acinetobacter baumannii/haemolyticus, multidrug-resistant clinical isolate (AB-3167). Put plainly: MIC determination, AB-3167. The assay is classed as cell-based. The conditions noted are these: Table 3, lower of duplicate values. As for the experimental part:
as §1, §2, §3
(§4) The following bacterial strains were used in these MIC determinations:
2) Acinetobacter baumannii/haemolyticus: Multidrug-resistant clinical isolate labeled as AB-3167 in Tables 2 and 3;

The subject of assay [4] is Escherichia coli EC-1: VOGEL, mouse virulent. The experiment in a line: MIC determination, EC-1. It is filed as cell-based. The note with it: Escherichia coli, read-out: EC-1 (MIC), Table 3, lower of duplicate values. The procedure: as §1, §2, §3, §4
3) Escherichia coli EC-1: VOGEL, mouse virulent labeled as EC-1 in Tables 2 and 3;

In brackets after ≈: the same amount, converted by molar mass.

Turning to `CC(CCn1cc(F)c(-c2ccncc2F)cc1=O)(C(=O)NO)S(C)(=O)=O` (stereo not drawn) [Example 73, 4-(3′,5-difluoro-2-oxo-4,4′-bipyridin-1(2H)-yl)-N-hydroxy-2-methyl-2-(methylsulfonyl)butanamide], the MIC is 8 µg/mL (≈ 19.9 µM) in assay [1], > 64 µg/mL in assay [3] and > 64 µg/mL in assay [4]. Moreover, the IC50 in assay [2] worked out at 8.3 nM.

On to `CC(C)Oc1ncccc1-c1cc(=O)n(CCC(C)(C(=O)NO)S(C)(=O)=O)cc1F` (stereo not drawn) [Example 104, 4-(5′-fluoro-2-isopropoxy-2′-oxo-3,4′-bipyridin-1′(2′H)-yl)-N-hydroxy-2-methyl-2-(methylsulfonyl)butanamide], for which the MIC in assay [1] came out at 32 µg/mL (≈ 72.5 µM); in assay [3] it was 32 µg/mL (≈ 72.5 µM); in assay [4] it was 8 µg/mL (≈ 18.1 µM). Besides, the IC50 in assay [2] was > 100 nM.

As to `CC(CCn1cc(F)c(-c2ccc3c(c2)C(=O)NC3)cc1=O)(C(=O)NO)S(C)(=O)=O` (stereo not drawn) [Example 50, 4-[5-fluoro-2-oxo-4-(3-oxo-2,3-dihydro-1H-isoindol-5-yl)pyridin-1(2H)-yl]-N-hydroxy-2-methyl-2-(methylsulfonyl)butanamide], the MIC in assay [1], in assay [3] and in assay [4] was > 64 µg/mL each time. Also, in assay [2], the IC50 came out at 68.2 nM.

As to `CN(C)Cc1ccc(-c2cc(=O)n(CCC(C)(C(=O)NO)S(C)(=O)=O)cc2F)cc1` (stereo not drawn) [Example 79, 4-[4-{4-[(dimethylamino)methyl]phenyl}-5-fluoro-2-oxopyridin-1(2H)-yl]-N-hydroxy-2-methyl-2-(methylsulfonyl)butanamide], the MIC in assay [1] is 16 µg/mL (≈ 36.4 µM); in assay [3], > 64 µg/mL; in assay [4], > 64 µg/mL. Also, the IC50 in assay [2] was determined as 35.9 nM.

For `CC(CCn1cc(F)c(-c2ccc(Cl)c(O)c2)cc1=O)(C(=O)NO)S(C)(=O)=O` (stereo not drawn) [Example 109, 4-[4-(4-chloro-3-hydroxyphenyl)-5-fluoro-2-oxopyridin-1(2H)-yl]-N-hydroxy-2-methyl-2-(methylsulfonyl)butanamide], the MIC was 32 µg/mL (≈ 73.9 µM) in assay [1], > 64 µg/mL in assay [3] and 32 µg/mL (≈ 73.9 µM) in assay [4]. Besides, the IC50 in assay [2] was 7.3 nM.

Turning to `COc1ncccc1-c1cc(=O)n(CCC(C)(C(=O)NO)S(C)(=O)=O)cc1F` (stereo not drawn) [Example 69, 4-(5′-fluoro-2-methoxy-2′-oxo-3,4′-bipyridin-1′(2′H)-yl)-N-hydroxy-2-methyl-2-(methylsulfonyl)butanamide], the figures for the MIC in assay [1], in assay [3] and in assay [4] were 8 µg/mL (≈ 19.4 µM), > 64 µg/mL and 64 µg/mL (≈ 155 µM), respectively. Besides, the IC50 in assay [2] was 16.6 nM.

Consider `CC(CCn1cc(F)c(-c2ccc(Cl)c(C#N)c2)cc1=O)(C(=O)NO)S(C)(=O)=O` (stereo not drawn) [Example 102, 4-[4-(4-chloro-3-cyanophenyl)-5-fluoro-2-oxopyridin-1(2H)-yl]-N-hydroxy-2-methyl-2-(methylsulfonyl)butanamide], for which the minimal inhibitory concentration (MIC) is 4 µg/mL (≈ 9.05 µM) in assay [1], > 64 µg/mL in assay [3] and 4 µg/mL (≈ 9.05 µM) in assay [4]. The IC50 in assay [2] was found to be 2.1 nM.

Take `CC(CCn1cc(F)c(-c2cnc(N3CCCC3)nc2)cc1=O)(C(=O)NO)S(C)(=O)=O` (stereo not drawn) [Example 106, 4-[5-fluoro-2-oxo-4-(2-pyrrolidin-1-ylpyrimidin-5-yl)pyridin-1(2H)-yl]-N-hydroxy-2-methyl-2-(methylsulfonyl)butanamide]: the results for the MIC in assay [1], in assay [3] and in assay [4] were 64 µg/mL (≈ 141 µM), > 64 µg/mL and 32 µg/mL (≈ 70.6 µM), respectively. Further, the IC50 in assay [2] was 56.8 nM.

With `CC(=O)Nc1ccc(-c2cc(=O)n(CCC(C)(C(=O)NO)S(C)(=O)=O)cc2F)cc1` (stereo not drawn) [Example 81, 4-[4-(4-acetamidophenyl)-5-fluoro-2-oxopyridin-1(2H)-yl]-N-hydroxy-2-methyl-2-(methylsulfonyl)butanamide], the MIC in assay [1] is 32 µg/mL (≈ 72.8 µM); in assay [3], > 64 µg/mL; in assay [4], 64 µg/mL (≈ 146 µM). For the same compound, the IC50 in assay [2] is 24.3 nM.

For `CC(=O)Nc1cccc(-c2cc(=O)n(CCC(C)(C(=O)NO)S(C)(=O)=O)cc2F)c1` (stereo not drawn) [Example 61, 4-[4-(3-acetamidophenyl)-5-fluoro-2-oxopyridin-1(2H)-yl]-N-hydroxy-2-methyl-2-(methylsulfonyl)butanamide], the MIC in assay [1], in assay [3] and in assay [4] was > 64 µg/mL each time. For the same compound, the IC50 in assay [2] was > 100 nM.

Consider `CN1Cc2ccc(-c3cc(=O)n(CCC(C)(C(=O)NO)S(C)(=O)=O)cc3F)cc2C1=O` (stereo not drawn) [Example 57, 4-[5-fluoro-4-(2-methyl-3-oxo-2,3-dihydro-1H-isoindol-5-yl)-2-oxopyridin-1(2H)-yl]-N-hydroxy-2-methyl-2-(methylsulfonyl)butanamide], for which the MIC in assay [1], in assay [3] and in assay [4] was > 64 µg/mL in each case. Also, the IC50 in assay [2] stood at 21 nM.

Turning to `COc1ccccc1-c1cc(=O)n(CCC(C)(C(=O)NO)S(C)(=O)=O)cc1F` (stereo not drawn) [Example 125, 4-[5-fluoro-4-(2-methoxyphenyl)-2-oxopyridin-1(2H)-yl]-N-hydroxy-2-methyl-2-(methylsulfonyl)butanamide], the values for the MIC in assay [1], in assay [3] and in assay [4] were 8 µg/mL (≈ 19.4 µM), > 64 µg/mL and 64 µg/mL (≈ 155 µM), respectively. For the same compound, the half-maximal inhibitory concentration (IC50) in assay [2] worked out at 12.9 nM.

`CC(CCn1cc(F)c(-c2ccc(C#N)nc2)cc1=O)(C(=O)NO)S(C)(=O)=O` (stereo not drawn) [Example 70, 4-(6-cyano-5′-fluoro-2′-oxo-3,4′-bipyridin-1′(2′H)-yl)-N-hydroxy-2-methyl-2-(methylsulfonyl)butanamide]: the MIC is 64 µg/mL (≈ 157 µM) in assay [1], > 64 µg/mL in assay [3] and > 64 µg/mL in assay [4]. In addition, the IC50 in assay [2] is 33.3 nM.

With `CNC(=O)c1ccc(-c2cc(=O)n(CCC(C)(C(=O)NO)S(C)(=O)=O)cc2F)cc1F` (stereo not drawn) [Example 52, 2-fluoro-4-{5-fluoro-1-[4-(hydroxyamino)-3-methyl-3-(methylsulfonyl)-4-oxobutyl]-2-oxo-1,2-dihydropyridin-4-yl}-N-methylbenzamide], the values for the MIC in assay [1], in assay [3] and in assay [4] were 32 µg/mL (≈ 70 µM), > 64 µg/mL and 64 µg/mL (≈ 140 µM), respectively. Moreover, the IC50 in assay [2] came out at 2.2 nM.

In the case of `CC(CCn1cc(F)c(-c2ccc(C#N)cc2)cc1=O)(C(=O)NO)S(C)(=O)=O` (stereo not drawn) [Example 124, 4-[4-(4-cyanophenyl)-5-fluoro-2-oxopyridin-1(2H)-yl]-N-hydroxy-2-methyl-2-(methylsulfonyl)butanamide], the MIC in assay [1] was 8 µg/mL (≈ 19.6 µM); in assay [3], > 64 µg/mL; in assay [4] it was 32 µg/mL (≈ 78.5 µM). For the same compound, in assay [2], the IC50 came to 3.4 nM.
